Where two headings read alike, the source gives them in different places.
Key:
pancreatic cancer = conditions: cited from earlier work
prostate cancer = conditions: cited from earlier work
melanoma = conditions: cited from earlier work
HIF-1α and VEGF = test: Western blot of HIF-1α and VEGF in pancreatic cancer cell lines; assay type: cell-based; conditions: 50 nM, 24 h
Protocol: It's postulated that functional inhibition of Hsp90 by ganetespib can inhibit angiogenesis and growth in vitro and in vivo models of pancreatic cancer. PANC-1 and HPAC cell lines were treated with vehicle or G (50 nM) for 24 h and lysates were analyzed by Western blot. Egg CAM and matrigel plug assays were performed to quantify the effects of ganetespib on angiogenesis. Efficacy of ganetespib (100 mg/kg) was assessed in mice bearing HPAC and ASPC-1 xenograft.
Primary antibodies specific to Hsp90, HIF-1α, VEGF, Actin and HRP conjugated secondary antibodies (Santa Cruz Biotechnology, California and Cell Signaling Technology, USA) were used for Western blot. Ganetespib was provided by Synta Pharmaceuticals, Lexington, Mass. and Matrigel was purchased from BD Biosciences.
Cells were harvested at the end of treatment and lysed in the RIPA protein extraction buffer (Sigma-Aldrich, Saint Louis, Mo., USA) containing the protease inhibitor cocktail. Equal amounts of protein fractions of lysates were resolved over SDS-PAGE and transferred on to PVDF membrane. Membranes were incubated with primary antibodies followed by HRP-conjugated secondary antibodies. Bound antibodies were visualized using enhanced chemiluminescence. To confirm equal loading, membranes were verified and re-probed with an antibody specific for the housekeeping gene, anti-β-actin.

A549 NSCLC cells = test: Mouse xenograft tumor model, ganetespib and BEZ235 (Example 9); assay type: in vivo, mice; conditions: ganetespib 50 mg/kg weekly i.v.; BEZ235 10 mg/kg 5 times a week p.o.; particularly at later time points; FIG. 8
Excerpt: Female immunodeficient CD-1 (nude) mice (Charles River Laboratories, Wilmington, Mass.) were maintained in a pathogen-free environment, and all in vivo procedures were approved by the Synta Pharmaceuticals Corp. Institutional Animal Care and Use Committee. A549 NSCLC cells (7.5×10^6) were subcutaneously implanted into the animals. Mice bearing established tumors (100-200 mm^3) were randomized into treatment groups of 8 and i.v. dosed via the tail vein with either vehicle, ganetespib formulated in 10/18 DRD (10% DMSO, 18% Cremophor RH 40, 3.6% dextrose, 68.4% water) or p.o. dosed with BEZ235 formulated in PEG300/NMP (90% PEG300, 10% N-Methylpyrrolidone). Animals were treated with ganetespib at 50 mg/kg weekly or BEZ235 at 10 mg/kg 5 times a week, either alone or in combination. Tumor growth inhibition was determined as described previously. See Proia et al, PLoS One. 2011; 6(4):e18552.

[1] = system: Chk1 and Chk2 phosphorylation; test: Western blot of Chk1 and Chk2 phosphorylation after bleomycin in Detroit 562 cells; assay type: cell-based; conditions: Detroit 562, bleomycin (5 μM)
Protocol: Protein expression was measured at the indicated time points after bleomycin treatment.
Cell extracts from Detroit 562 head and neck cancer cells were treated with 100 nM of ganetespib 24 hours prior to receiving the DNA damaging agent bleomycin (5 μM). Protein expression was measured at the indicated time points after bleomycin treatment.

colon cancer first line = conditions: cited from earlier work
colon cancer second line = conditions: cited from earlier work
[2] = system: AGS (wt-p53 and mut-KRAS); test: 72 hr viability by CTG, gastric cancer cells; assay type: cell-based; conditions: viability by CTG (upper)
Protocol: (§1) Many of the oncoproteins associated with gastric cancer and Hsp90 client proteins including HER2, MET, RAS and the FGFR family. Ganetespib was evaluated for its effect on the growth of AGS (wt-p53 and mut-KRAS) and MKN45 (wt-p53, wt-KRAS, MET amplified) gastric cancer cells.

[3] = system: MKN45 (wt-p53, wt-KRAS, MET amplified); test: 72 hr viability by CTG, gastric cancer cells; assay type: cell-based; conditions: Homo sapiens, MKN-45, viability by CTG (upper)
Protocol: as §1

RCC = conditions: cited from earlier work

## bevacizumab: anti-cancer agent cited from large randomized phase 2 and phase 3 studies
Pancreatic cancer; high LDH, 95% CI 0.43-0.82
  OS HR: 0.59
Pancreatic cancer; normal LDH, 95% CI 0.78-1.24
  HR: 0.98
Prostate cancer; high LDH, P=0.029
  OS HR: 0.80
Prostate cancer; normal LDH, P=0.87
  OS HR: 1.02
melanoma; high LDH, 95% CI 0.32-0.88
  OS HR: 0.53
melanoma; normal LDH, 95% CI 0.73-1.25
  OS HR: 1.25

## 3-2,4-dihydroxy-5-isopropyl-phenyl)-4-(1-methyl-indol-5-yl)-5-hydroxy-[1,2,4]triazole [ganetespib]
HIF-1α and VEGF
  HIF-1α and VEGF protein levels: significant reduction

## Cn1c(=O)n(-c2ccc(C(C)(C)C#N)cc2)c2c3cc(-c4cnc5ccccc5c4)ccc3ncc21 [BEZ235, reference compound]
A549 NSCLC cells
  Average tumor volume as compared to vehicle: significantly reduced

## Bleomycin [reference compound]
[1]
  Chk1 and Chk2 phosphorylation: increased both Chk1 and Chk2 phosphorylation

## Clc1ccc(Nc2nnc(Cc3ccncc3)c3ccccc23)cc1 [vatalanib]
Colon cancer first line; LDH group not given, P=0.188
  PFS HR: 0.88
Colon cancer first line; high LDH, P=0.009
  PFS HR: 0.67
Colon cancer second line; LDH group not given, P=0.01
  PFS HR: 0.83
Colon cancer second line; high LDH, P<0.001
  PFS HR: 0.63

## CC(=O)O[C@@]12CO[C@@H]1C[C@H](O)[C@@]1(C)C(=O)[C@H](O)C3=C(C)[C@@H](OC(=O)[C@H](O)[C@@H](NC(=O)OC(C)(C)C)c4ccccc4)C[C@@](O)([C@@H](OC(=O)c4ccccc4)[C@H]21)C3(C)C [Docetaxel]
[2]
  IC50: 0.3 nM
[3]
  IC50: 0.1 nM

## CO[C@H]1C[C@@H]2CC[C@@H](C)[C@@](O)(O2)C(=O)C(=O)N2CCCC[C@H]2C(=O)O[C@H]([C@H](C)C[C@@H]2CC[C@@H](OC(=O)C(C)(CO)CO)[C@H](OC)C2)CC(=O)[C@H](C)/C=C(\C)[C@@H](O)[C@@H](OC)C(=O)[C@H](C)C[C@H](C)/C=C/C=C/C=C/1C [temsirolimus]
RCC; high LDH, P=0.002
  OS HR: 0.56
RCC; normal LDH, P=0.51
  OS HR: 0.90

## C=CCNC1=C2C[C@@H](C)C[C@H](OC)[C@H](O)[C@@H](C)/C=C(\C)[C@H](OC(N)=O)[C@@H](OC)/C=C\C=C(/C)C(=O)NC(=CC1=O)C2=O [17-AAG, 17-allyamino-geldanamycin]
[2]
  IC50: 50 nM
[3]
  IC50: 1 nM

— US20150253330A1, “PRE-SELECTION OF SUBJECTS FOR THERAPEUTIC TREATMENT WITH AN HSP90 INHIBITOR BASED ON HYPOXIC STATUS” (Synta Pharmaceuticals Corp., priority 2012, published 2015)
